# Literature values, collected in patent publication US20240173373A1, “NOVEL METHOD FOR THE PRODUCTION OF CONCENTRATED ALOE VERA COMPOSITIONS AND THERAPEUTIC USES FOR THE SAME” (Desert Harvest, Inc., priority 2021, published 2024).
# System: scald hyperalgesia
# Settings: compared with phenylbutazone
substance,measurement,value
O-acetylated-D-mannan [O-acetylated-D-mannan (T-2-HN)],inhibitory effect on scald hyperalgesia,more marked inhibitory effect on scald hyperalgesia than phenylbutazone
